Data taken from patent US20230150970A1, “AMINOPYRIMIDINE DERIVATIVES AND THEIR USE AS ARYL HYDROCARBON RECEPTOR MODULATORS” (DONG-A ST CO., LTD., priority 2020, published 2023).

biological target: T1, AhR (Homo sapiens, UniProt P35869); assay: In Vitro Assay 1: XRE-luciferase reporter assay, antagonism in human cell line (HepG2); conditions: Assay 1: AhR-Luc Human Antagonism (IC50, nM), values marked *: kynurenine 50 μM, 6 hours
T1 sequence (P35869 11-848): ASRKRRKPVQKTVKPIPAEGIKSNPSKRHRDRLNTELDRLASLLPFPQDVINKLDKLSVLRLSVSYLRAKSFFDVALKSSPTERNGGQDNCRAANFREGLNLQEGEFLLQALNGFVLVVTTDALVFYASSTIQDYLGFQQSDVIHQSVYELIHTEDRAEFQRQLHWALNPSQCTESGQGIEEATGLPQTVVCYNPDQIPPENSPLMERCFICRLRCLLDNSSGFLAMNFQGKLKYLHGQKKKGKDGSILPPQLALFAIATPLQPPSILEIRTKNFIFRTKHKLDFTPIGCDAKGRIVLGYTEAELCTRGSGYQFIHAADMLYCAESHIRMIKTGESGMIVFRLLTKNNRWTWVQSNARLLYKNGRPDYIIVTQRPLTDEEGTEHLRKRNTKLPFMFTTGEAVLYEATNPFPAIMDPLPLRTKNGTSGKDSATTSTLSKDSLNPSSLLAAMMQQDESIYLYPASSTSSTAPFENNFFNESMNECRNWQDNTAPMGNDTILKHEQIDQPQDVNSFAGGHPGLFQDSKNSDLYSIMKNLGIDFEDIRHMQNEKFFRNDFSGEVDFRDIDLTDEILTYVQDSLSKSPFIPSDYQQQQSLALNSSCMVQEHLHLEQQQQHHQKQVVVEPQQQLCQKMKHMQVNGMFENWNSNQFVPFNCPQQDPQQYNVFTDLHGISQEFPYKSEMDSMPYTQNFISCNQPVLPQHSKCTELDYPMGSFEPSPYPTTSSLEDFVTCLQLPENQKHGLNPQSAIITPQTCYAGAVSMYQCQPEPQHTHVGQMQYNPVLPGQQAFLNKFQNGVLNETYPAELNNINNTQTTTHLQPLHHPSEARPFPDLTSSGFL

Structure (SMILES) | IC50
Cn1cc(-c2nc(-c3ccc(Cl)cc3)cc(N3CC[C@@H](O)C3)n2)cn1 [Example 186, (R)-1-(6-(4-chlorophenyl)-2-(1-methyl-1H-pyrazol-4-yl)pyrimidin-4-yl)pyrrolidin-3-ol] | > 1000 nM
CC[C@H](CO)Nc1cc(-c2ccc(Cl)cc2)nc(-c2cnn(C)c2)n1 [Example 188, (R)-2-((6-(4-chlorophenyl)-2-(1-methyl-1H-pyrazol-4-yl)pyrimidin-4-yl)amino)butan-1-ol] | 100 to 1000 nM
Cn1cc(-c2nc(N[C@H]3CC[C@H](O)CC3)cc(-c3ccc(Cl)cc3)n2)cn1 [Example 189, Trans-4-((6-(4-chlorophenyl)-2-(1-methyl-1H-pyrazol-4-yl)pyrimidin-4-yl)amino)cyclohexan-1-ol] | 100 to 1000 nM
CC[C@@H](Nc1cc(-c2ccc(Cl)cc2)nc(-c2cccnc2)n1)[C@@H](C)O [Example 192, (2R,3R)-3-((6-(4-chlorophenyl)-2-(pyridin-3-yl)pyrimidin-4-yl)amino)pentan-2-ol] | 100 to 1000 nM
CN1CCC(CNc2cc(-c3ccc(Cl)cc3)nc(-c3cccnc3)n2)CC1 [Example 193, 6-(4-chlorophenyl)-N-((1-methylpiperidin-4-yl)methyl)-2-(pyridin-3-yl)pyrimidin-4-amine] | 100 to 1000 nM
COC[C@@H]1CCCN1Nc1cc(-c2ccc(Cl)cc2)nc(-c2cccnc2)n1 [Example 195, (S)-6-(4-chlorophenyl)-N-(2-(methoxymethyl)pyrrolidin-1-yl)-2-(pyridin-3-yl)pyrimidin-4-amine] | > 1000 nM
FC(F)(F)C1CCCN1c1cc(-c2ccc(Cl)cc2)nc(-c2cccnc2)n1 (centres unmarked) [Example 197, 4-(4-chlorophenyl)-2-(pyridin-3-yl)-6-(2-(trifluoromethyl)pyrrolidin-1-yl)pyrimidine] | > 1000 nM
Clc1ccc(-c2cc(N3CCC(N4CCOCC4)C3)nc(-c3cccnc3)n2)cc1 (centres unmarked) [Example 199, 4-(1-(6-(4-chlorophenyl)-2-(pyridin-3-yl)pyrimidin-4-yl)pyrrolidin-3-yl)morpholine] | 100 to 1000 nM
O=C1CCC(CNc2cc(-c3ccc(Cl)cc3)nc(-c3cccnc3)n2)N1 (centres unmarked) [Example 200, 5-(((6-(4-chlorophenyl)-2-(pyridin-3-yl)pyrimidin-4-yl)amino)methyl)pyrrolidin-2-one] | > 1000 nM
CO[C@H]1CN(C)C[C@@H]1Nc1cc(-c2ccc(Cl)cc2)nc(-c2cccnc2)n1 [Example 202, 6-(4-chlorophenyl)-N-((3S,4S)-4-methoxy-1-methylpyrrolidin-3-yl)-2-(pyridin-3-yl)pyrimidin-4-amine] | > 1000 nM
Clc1ccc(-c2cc(N[C@@H]3CCCNC3)nc(-c3cccnc3)n2)cc1 [Example 203, (R)-6-(4-chlorophenyl)-N-(piperidin-3-yl)-2-(pyridin-3-yl)pyrimidin-4-amine] | 100 to 1000 nM
Clc1ccc(-c2cc(NC3CCCNC3)nc(-c3cccnc3)n2)cc1 (centres unmarked) [Example 204, 6-(4-chlorophenyl)-N-(piperidin-3-yl)-2-(pyridin-3-yl)pyrimidin-4-amine] | > 1000 nM
F[C@@H]1CNCC[C@H]1Nc1cc(-c2ccc(Cl)cc2)nc(-c2cccnc2)n1 [Example 205, 6-(4-chlorophenyl)-N-((3R,4R)-3-fluoropiperidin-4-yl)-2-(pyridin-3-yl)pyrimidin-4-amine] | > 1000 nM
Clc1ccc(-c2cc(NC[C@H]3CCNC3)nc(-c3cccnc3)n2)cc1 [Example 206, (S)-6-(4-chlorophenyl)-2-(pyridin-3-yl)-N-(pyrrolidin-3-ylmethyl)pyrimidin-4-amine] | > 1000 nM
COC(=O)[C@H]1C[C@@H](Nc2cc(-c3ccc(Cl)cc3)nc(-c3cccnc3)n2)CN1 [Example 207, methyl (2R,4R)-4-((6-(4-chlorophenyl)-2-(pyridin-3-yl)pyrimidin-4-yl)amino)pyrrolidine-2-carboxylate] | > 1000 nM
O=C(O)[C@H]1C[C@H](Nc2cc(-c3ccc(Cl)cc3)nc(-c3cccnc3)n2)CN1 [Example 208, (2R,4S)-4-((6-(4-chlorophenyl)-2-(pyridin-3-yl)pyrimidin-4-yl)amino)pyrrolidine-2-carboxylic acid] | > 1000 nM

Now from value to compound:

IC50 | Structure (SMILES)
100 to 1000 nM | Cn1cc(-c2nc(-c3ccc(Cl)cc3)cc(N3CCN(CCO)CC3)n2)cn1 [Example 182, 2-(4-(6-(4-chlorophenyl)-2-(1-methyl-1H-pyrazol-4-yl)pyrimidin-4-yl)piperazin-1-yl)ethan-1-ol]
100 to 1000 nM | Cn1cc(-c2nc(-c3ccc(Cl)cc3)cc(N3CC[C@H](O)C3)n2)cn1 [Example 183, (S)-1-(6-(4-chlorophenyl)-2-(1-methyl-1H-pyrazol-4-yl)pyrimidin-4-yl)pyrrolidin-3-ol]
100 to 1000 nM | Cn1cc(-c2nc(-c3ccc(Cl)cc3)cc(N3CCC(C#N)CC3)n2)cn1 [Example 184, 1-(6-(4-chlorophenyl)-2-(1-methyl-1H-pyrazol-4-yl)pyrimidin-4-yl)piperidine-4-carbonitrile]
100 to 1000 nM | Cn1cc(-c2nc(-c3ccc(Cl)cc3)cc(N3CCC[C@@H](CO)C3)n2)cn1 [Example 185, (R)-(1-(6-(4-chlorophenyl)-2-(1-methyl-1H-pyrazol-4-yl)pyrimidin-4-yl)piperidin-3-yl)methanol]
100 to 1000 nM | Cn1cc(-c2nc(N[C@@H]3CC[C@H](O)C3)cc(-c3ccc(Cl)cc3)n2)cn1 [Example 187, (1S,3R)-3-((6-(4-chlorophenyl)-2-(1-methyl-1H-pyrazol-4-yl)pyrimidin-4-yl)amino)cyclopentan-1-ol]
10 to 100 nM | Clc1ccc(-c2cc(N3CCC4CCCOC4C3)nc(-c3cccnc3)n2)cc1 (centres unmarked) [Example 190, 7-(6-(4-chlorophenyl)-2-(pyridin-3-yl)pyrimidin-4-yl)octahydro-2H-pyrano[2,3-c]pyridine]
10 to 100 nM | OC1CCOC2CN(c3cc(-c4ccc(Cl)cc4)nc(-c4cccnc4)n3)CCC12 (centres unmarked) [Example 191, 7-(6-(4-chlorophenyl)-2-(pyridin-3-yl)pyrimidin-4-yl)octahydro-2H-pyrano[2,3-c]pyridin-4-ol]
< 10 nM | O[C@@H]1CCN(c2cc(-c3ccc(Cl)cc3)nc(-c3cccnc3)n2)C1 [Example 194, (R)-1-(6-(4-chlorophenyl)-2-(pyridin-3-yl)pyrimidin-4-yl)pyrrolidin-3-ol]
10 to 100 nM | F[C@H]1CCN(c2cc(-c3ccc(Cl)cc3)nc(-c3cccnc3)n2)C1 [Example 196, (S)-4-(4-chlorophenyl)-6-(3-fluoropyrrolidin-1-yl)-2-(pyridin-3-yl)pyrimidine]
10 to 100 nM | FC1(F)CCN(c2cc(-c3ccc(Cl)cc3)nc(-c3cccnc3)n2)C1 [Example 198, 4-(4-chlorophenyl)-6-(3,3-difluoropyrrolidin-1-yl)-2-(pyridin-3-yl)pyrimidine]
10 to 100 nM | ClC[C@@H]1CCN(c2cc(-c3ccc(Cl)cc3)nc(-c3cccnc3)n2)C1 [Example 210, (R)-4-(3-(chloromethyl)pyrrolidin-1-yl)-6-(4-chlorophenyl)-2-(pyridin-3-yl)pyrimidine]
10 to 100 nM | ClC[C@H]1CCN(c2cc(-c3ccc(Cl)cc3)nc(-c3cccnc3)n2)C1 [Example 211, (S)-4-(3-(chloromethyl)pyrrolidin-1-yl)-6-(4-chlorophenyl)-2-(pyridin-3-yl)pyrimidine]
10 to 100 nM | N#CC1CCN(c2cc(-c3ccc(Cl)cc3)nc(-c3cccnc3)n2)C1 (centres unmarked) [Example 212, 1-(6-(4-chlorophenyl)-2-(pyridin-3-yl)pyrimidin-4-yl)pyrrolidine-3-carbonitrile]
10 to 100 nM | CC[C@@H](O)CNc1cc(-c2ccc(Cl)cc2)nc(-c2cccnc2)n1 [Example 213, (R)-1-((6-(4-chlorophenyl)-2-(pyridin-3-yl)pyrimidin-4-yl)amino)butan-2-ol]
10 to 100 nM | O[C@@H]1CC[C@H](Nc2cc(-c3ccc(Cl)cc3)nc(-c3cccnc3)n2)C1 [Example 214, (1R,3S)-3-((6-(4-chlorophenyl)-2-(pyridin-3-yl)pyrimidin-4-yl)amino)cyclopentan-1-ol]
< 10 nM | COCCN1CCN(c2cc(-c3ccc(Cl)cc3)nc(-c3cccnc3)n2)CC1 [Example 218, 4-(4-chlorophenyl)-6-(4-(2-methoxyethyl)piperazin-1-yl)-2-(pyridin-3-yl)pyrimidine]
< 10 nM | O[C@@H]1CCN(c2cc(-c3ccc(Cl)cc3)nc(-c3cccnc3)n2)C[C@@H]1F [Example 219, (3S,4R)-1-(6-(4-chlorophenyl)-2-(pyridin-3-yl)pyrimidin-4-yl)-3-fluoropiperidin-4-ol]
10 to 100 nM | O[C@H]1CCN(c2cc(-c3ccc(Cl)cc3)nc(-c3cccnc3)n2)C[C@H]1F [Example 220, (3R,4S)-1-(6-(4-chlorophenyl)-2-(pyridin-3-yl)pyrimidin-4-yl)-3-fluoropiperidin-4-ol]
10 to 100 nM | O[C@@H]1CCN(c2cc(-c3ccc(Cl)cc3)nc(-c3cccnc3)n2)C[C@H]1F [Example 221, (3R,4R)-1-(6-(4-chlorophenyl)-2-(pyridin-3-yl)pyrimidin-4-yl)-3-fluoropiperidin-4-ol]
